Measured values published in publication PMC11578313, “Miniaturized Modular Click Chemistry‐enabled Rapid Discovery of Unique SARS‐CoV‐2 M^pro Inhibitors With Robust Potency and Drug‐like Profile” (Advanced Science, 2024).
Where “and” joins values, the source holds several entries; their conditions need not be identical. Identical values can stand only once. Like-named read-outs stand apart in the source and are kept apart here.

Tests used:
[1] = for Plasma concentration (Calculated Concentration): mouse plasma
[2] = system: SARS‐CoV‐2 S and N proteins; assay type: cell-based
[3] = system: Kunming mice; assay: Subacute toxicity experiment; assay type: in vivo
Protocol: The acute and subacute toxicity of C5N17B were assessed in Kunming mice. In the acute toxicity study, one group received an oral dose of 500 mg kg^−1 of C5N17B. In the subacute toxicity study, a different group was administered a lower dose of 50 mg kg^−1 of C5N17B. Each experimental set included a control group that received only the vehicle treatment.
Kunming mice were group housed both during acclimation and the study period. The animal room environment was controlled to maintain specific target conditions, including a temperature range of 20 °C to 25 °C, relative humidity levels between 40% and 70%, and an alternating schedule of artificial light for 12 h followed by 12 h of darkness. The age of Kunming mice in the acute/subacute toxicity study was 3–4 weeks, and the body weights were ≈20 g. All animal experiments related to this study were approved by the ethics committee of Cheeloo College of Medicine (approval No. 230014), Shandong University (Jinan, China) Procedures performed in the studies were guided by the ethical standards of the institution.
A group of Kunming mice (comprising three males and three females) was supplied by the Animal Experimental Center of Shandong University. The mice underwent a 12 h fasting period, followed by oral administration of a suspension containing C5N17B in 0.5% CMC‐Na and 3% DMSO at the concentration of 100 mg mL^−1 to achieve an acute toxicity dose of 500 mg kg^−1. In the subacute toxicity experiment, the test group received 50 mg kg^−1 of C5N17B orally, with another group serving as a control. The experimental group and control group each consist of six mice, with an equal distribution of three males and three females.

[4] = molecular target: T1, SARS‐CoV‐2 M^pro (Severe acute respiratory syndrome coronavirus 2, UniProt P0DTD1); assay: SARS‐CoV‐2 main protease enzymatic assay (FRET inhibitor screening kit); assay type: biochemical
[5] = system: SARS‐CoV‐2 Delta (hCoV‐19/Korea/KDCA119861/2021); assay: microbe, parasite or virus in culture; assay type: cell-based; conditions: Severe acute respiratory syndrome coronavirus 2; Calu‐3; read-out: EC50 ± SD, SARS‐CoV‐2 Delta
[6] = molecular target: T1, SARS‐CoV‐2 M^pro; assay: biochemical; conditions: reported K M value and Cheng‐Prusoff equation
[7] = system: HCoV‐NL63; assay: microbe, parasite or virus in culture; assay type: cell-based; conditions: Human coronavirus NL63, LLC-MK2, read-out: EC50 ± SD, HCoV‐NL63
[8] = system: SARS‐CoV‐2 Gamma (hCoV‐19/Korea/KDCA95637/2021); assay: microbe, parasite or virus in culture; assay type: cell-based; conditions: Severe acute respiratory syndrome coronavirus 2; Calu‐3; read-out: EC50 ± SD, SARS‐CoV‐2 Gamma
[9] = C5N17B+Ritonavir, PO 10 mg/kg, individual mice 1#-3#, 10 mg/kg
[10] = C5N17B+Ritonavir, po 10 mg/kg, based on predicted Clast, individual mice, 10 mg/kg
[11] = C5N17B+Ritonavir, po 10 mg/kg, dose-normalised, individual mice, 10 mg/kg
[12] = C5N17B+Ritonavir, po 10 mg/kg, non-compartmental output, individual mice, 10 mg/kg

SMILES: Cc1cncc(C(=O)N2C[C@H]3CC[C@@H](C2)N3[C@H](c2cccc(F)c2)c2cn(CCc3ccsc3)nn2)c1 [Compound C5N17B]
- AUC0-∞ [1, 9]: 13462 ng·h/mL and 18653 ng·h/mL
- AUC(0-t) [1, 9]: 13105 ng·h/mL and 11834 ng·h/mL
- Cmax [1, 9]: 2150 ng/mL and 2470 ng/mL
- MRT0-t [1, 9]: 3.43 h and 3.39 h
- MRT0-∞ [1, 9]: 3.03 h and 3.63 h and 7.98 h
- T1/2 [1, 9]: 1.87 h and 2.03 h and 5.52 h
- Plasma concentration (Calculated Concentration) ([1]; C5N17B+Ritonavir, PO 10 mg/kg, 5 min (5min), individual mice, 10 mg/kg): 861 ng/mL and 439 ng/mL
- Plasma concentration (Calculated Concentration) ([1]; C5N17B+Ritonavir, PO 10 mg/kg, 0.5 h (30min), individual mice, 10 mg/kg): 1220 ng/mL and 1720 ng/mL
- Plasma concentration (Calculated Concentration) ([1]; C5N17B+Ritonavir, PO 10 mg/kg, 1 h, individual mice, 10 mg/kg): 1750 ng/mL and 1960 ng/mL
- Plasma concentration (Calculated Concentration) ([1]; C5N17B+Ritonavir, PO 10 mg/kg, 2 h, individual mice, 10 mg/kg): 2270 ng/mL and 2140 ng/mL
- Plasma concentration (Calculated Concentration) ([1]; C5N17B+Ritonavir, PO 10 mg/kg, 4 h, individual mice, 10 mg/kg): 1920 ng/mL and 2150 ng/mL
- AUCINF_pred [1, 10]: 13994.4 ng·h/mL and 18824.1 ng·h/mL
- Cl_F_pred [1, 10]: 15.3694 mL/min/kg and 11.9096 mL/min/kg and 8.85392 mL/min/kg
- MRTINF_pred [1, 10]: 3.269 h and 3.905 h and 8.0548 h
- Vz_F_pred [1, 10]: 2.48776 L/kg and 2.09319 L/kg and 4.22695 L/kg
- AUCINF_D_pred ([1]; C5N17B+Ritonavir, po 10 mg/kg, dose-normalised, based on predicted Clast, individual mice, 10 mg/kg): 1084.41 kg·ng·h/mL/mg and 1399.44 kg·ng·h/mL/mg and 1882.41 kg·ng·h/mL/mg
- AUCINF_D_obs [1, 11]: 1039.52 kg·ng·h/mL/mg and 1346.22 kg·ng·h/mL/mg and 1865.31 kg·ng·h/mL/mg
- AUClast_D [1, 11]: 968.565 kg·ng·h/mL/mg and 1310.48 kg·ng·h/mL/mg and 1183.41 kg·ng·h/mL/mg
- Cmax_D [1, 11]: 227 kg·ng/mL/mg and 215 kg·ng/mL/mg and 247 kg·ng/mL/mg
- Tlag ([1]; C5N17B+Ritonavir, po 10 mg/kg, non-compartmental output, individual mice): 0 h
- AUCINF_obs [1, 12]: 13462.2 ng·h/mL and 18653.1 ng·h/mL
- AUCall [1, 12]: 13104.8 ng·h/mL and 11834.1 ng·h/mL
- AUClast [1, 12]: 13104.8 ng·h/mL and 11834.1 ng·h/mL
- AUMClast [1, 12]: 25373.2 h*h*ng/ml and 44928.8 h*h*ng/ml and 40086.7 h*h*ng/ml
- Cl_F_obs [1, 12]: 12.3804 mL/min/kg and 8.93505 mL/min/kg
- Cmax [1, 12]: 2150 ng/mL and 2470 ng/mL
- HL_Lambda_z [1, 12]: 1.87 h and 2.03 h and 5.515 h
- Lambda_z [1, 12]: 0.3707 h⁻¹ and 0.3414 h⁻¹ and 0.1257 h⁻¹
- MRTINF_obs [1, 12]: 3.035 h and 3.628 h and 7.982 h
- MRTlast [1, 12]: 3.428 h and 3.387 h
- Tlast [1, 12]: 6 h and 8 h
- Vz_F_obs [1, 12]: 2.5952 L/kg and 2.17594 L/kg and 4.26569 L/kg
- Clast_pred ([1]; C5N17B+Ritonavir, po 10 mg/kg, predicted from terminal fit, individual mice, 10 mg/kg): 429.412 ng/mL and 303.677 ng/mL and 878.481 ng/mL
- plasma exposure (AUC0‐t) with ritonavir higher than when administered alone ([1]; p.o. 10 mg kg^−1): ~300 fold
- SARS‐CoV‐2 S and N proteins in virus‐infected cells [2]: dose‐dependent reduction
- body weight compared to the control group, subacute toxicity ([3]; 50 mg kg^−1, 15 days): no significant changes in body weight
- examination of vital organs, hematoxylin and eosin‐stained slices ([3]; heart, liver, spleen, lung, kidney, subacute toxicity study): no significant pathological abnormalities
- fatalities or abnormal behavior, subacute toxicity ([3]; oral 50 mg kg^−1, Kunming mice): No fatalities or abnormal behavior
- IC50 [4]: 120 nM
- inhibition at 5 µM ([4]; 5 μM, read-out: Inhibitionrate at @5μM): 99.6%
- fold stronger enzyme inhibitory activity than C5N17A ([4]; IC50 ratio): 27 fold
- EC50 [5]: 154 ± 19 nM
- Ki [6]: 26.6 nM
- EC50 [7]: > 100000 nM
- EC50 [8]: 260 ± 13 nM
